Assay results published in paper PMC7915588, “Polyphyllin D Shows Anticancer Effect through a Selective Inhibition of Src Homology Region 2-Containing Protein Tyrosine Phosphatase-2 (SHP2)” (Molecules, 2021).

Tests used:
Test in all cases: biochemical
Set-up in all cases: Fluorogenic phosphatase assay, DiFMUP hydrolysis by recombinant PTPs, initial velocity, Ex/Em 355/460 nm
Conditions in all cases: read-out: Inhibition by 20 µM polyphyllin D (%)
SHP1 = biological target: T1, SHP1 (Homo sapiens, UniProt P29350)
T1 construct: gene PTPN6
T1 sequence (P29350 whole entry): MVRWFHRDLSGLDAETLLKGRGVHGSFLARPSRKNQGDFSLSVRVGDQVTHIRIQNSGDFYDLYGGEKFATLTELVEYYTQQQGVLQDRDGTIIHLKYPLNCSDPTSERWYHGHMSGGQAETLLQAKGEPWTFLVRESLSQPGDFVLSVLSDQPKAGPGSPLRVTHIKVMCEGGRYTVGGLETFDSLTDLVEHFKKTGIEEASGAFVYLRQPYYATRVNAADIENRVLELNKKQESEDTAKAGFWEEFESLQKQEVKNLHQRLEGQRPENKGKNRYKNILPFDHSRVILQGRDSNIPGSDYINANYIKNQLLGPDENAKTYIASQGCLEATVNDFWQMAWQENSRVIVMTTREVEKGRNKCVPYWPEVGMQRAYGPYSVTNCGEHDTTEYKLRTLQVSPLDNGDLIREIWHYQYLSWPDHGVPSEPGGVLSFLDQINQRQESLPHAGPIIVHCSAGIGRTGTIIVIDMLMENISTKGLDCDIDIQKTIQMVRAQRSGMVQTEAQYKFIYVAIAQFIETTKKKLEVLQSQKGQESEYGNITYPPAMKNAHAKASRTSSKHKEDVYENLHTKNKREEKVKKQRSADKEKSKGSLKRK

PTPN1 (PTP1B) = biological target: T2, PTPN1 (PTP1B) (Homo sapiens, UniProt P18031)
T2 construct: 1-299
T2 sequence (P18031 1-435): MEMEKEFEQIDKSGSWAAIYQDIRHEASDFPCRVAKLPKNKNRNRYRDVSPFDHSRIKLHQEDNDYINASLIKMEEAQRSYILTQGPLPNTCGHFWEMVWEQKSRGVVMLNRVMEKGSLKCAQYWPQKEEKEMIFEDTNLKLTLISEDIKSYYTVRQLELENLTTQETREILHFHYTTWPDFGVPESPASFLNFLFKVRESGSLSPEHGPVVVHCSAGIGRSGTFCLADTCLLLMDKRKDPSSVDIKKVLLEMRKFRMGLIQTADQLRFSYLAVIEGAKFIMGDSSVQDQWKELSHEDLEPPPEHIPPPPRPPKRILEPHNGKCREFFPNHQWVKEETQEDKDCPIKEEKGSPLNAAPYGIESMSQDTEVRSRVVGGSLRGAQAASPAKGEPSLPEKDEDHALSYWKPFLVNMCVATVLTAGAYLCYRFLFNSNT

PTPN23 (HD-PTP) = biological target: T3, PTPN23 (HD-PTP) (Homo sapiens, UniProt Q9H3S7)
T3 construct: 1179-1463
T3 sequence (Q9H3S7 whole entry): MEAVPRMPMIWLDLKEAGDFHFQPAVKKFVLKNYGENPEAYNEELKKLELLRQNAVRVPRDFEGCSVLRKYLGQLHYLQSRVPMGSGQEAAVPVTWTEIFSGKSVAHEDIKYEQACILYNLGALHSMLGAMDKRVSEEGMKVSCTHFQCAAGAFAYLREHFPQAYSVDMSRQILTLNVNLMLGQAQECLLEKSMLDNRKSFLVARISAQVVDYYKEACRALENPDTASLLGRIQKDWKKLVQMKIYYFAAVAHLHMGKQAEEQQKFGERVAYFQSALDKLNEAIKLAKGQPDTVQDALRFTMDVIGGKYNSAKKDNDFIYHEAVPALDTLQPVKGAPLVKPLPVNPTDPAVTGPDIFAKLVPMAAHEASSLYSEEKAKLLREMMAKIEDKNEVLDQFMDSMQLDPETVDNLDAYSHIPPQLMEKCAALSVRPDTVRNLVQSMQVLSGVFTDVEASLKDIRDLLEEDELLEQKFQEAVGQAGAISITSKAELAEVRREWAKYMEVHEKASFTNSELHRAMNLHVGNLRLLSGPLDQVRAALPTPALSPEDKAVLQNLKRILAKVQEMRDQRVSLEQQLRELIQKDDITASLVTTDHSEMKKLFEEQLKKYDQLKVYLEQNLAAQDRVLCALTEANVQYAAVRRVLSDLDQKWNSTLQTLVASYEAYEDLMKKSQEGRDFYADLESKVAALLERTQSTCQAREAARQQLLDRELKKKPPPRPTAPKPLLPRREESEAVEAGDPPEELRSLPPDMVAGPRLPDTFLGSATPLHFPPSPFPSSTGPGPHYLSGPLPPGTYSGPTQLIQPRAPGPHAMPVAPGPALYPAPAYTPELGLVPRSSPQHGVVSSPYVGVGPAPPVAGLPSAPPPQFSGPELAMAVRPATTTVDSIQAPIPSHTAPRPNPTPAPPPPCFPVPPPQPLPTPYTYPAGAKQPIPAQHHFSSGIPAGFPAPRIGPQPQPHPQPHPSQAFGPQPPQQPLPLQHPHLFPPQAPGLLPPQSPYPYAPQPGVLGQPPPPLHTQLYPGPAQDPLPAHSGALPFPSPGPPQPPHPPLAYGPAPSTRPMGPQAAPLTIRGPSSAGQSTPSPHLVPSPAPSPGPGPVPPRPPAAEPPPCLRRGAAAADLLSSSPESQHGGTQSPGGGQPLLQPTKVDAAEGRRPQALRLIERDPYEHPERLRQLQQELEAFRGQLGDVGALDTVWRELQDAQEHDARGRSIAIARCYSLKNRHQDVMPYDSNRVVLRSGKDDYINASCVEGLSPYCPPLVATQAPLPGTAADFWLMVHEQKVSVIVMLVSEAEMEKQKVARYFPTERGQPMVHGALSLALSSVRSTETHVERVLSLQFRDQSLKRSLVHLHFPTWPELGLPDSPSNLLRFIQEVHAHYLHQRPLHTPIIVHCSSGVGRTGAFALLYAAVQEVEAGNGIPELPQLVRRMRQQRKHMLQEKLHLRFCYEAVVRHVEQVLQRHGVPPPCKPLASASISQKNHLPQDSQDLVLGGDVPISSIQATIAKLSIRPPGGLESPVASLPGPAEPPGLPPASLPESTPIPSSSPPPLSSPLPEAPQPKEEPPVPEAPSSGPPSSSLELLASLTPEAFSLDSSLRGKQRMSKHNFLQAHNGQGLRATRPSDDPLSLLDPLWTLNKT

PTPN5 (STEP) = biological target: T4, PTPN5 (STEP) (Homo sapiens, UniProt P54829)
T4 construct: 313-565
T4 sequence (P54829 1-565): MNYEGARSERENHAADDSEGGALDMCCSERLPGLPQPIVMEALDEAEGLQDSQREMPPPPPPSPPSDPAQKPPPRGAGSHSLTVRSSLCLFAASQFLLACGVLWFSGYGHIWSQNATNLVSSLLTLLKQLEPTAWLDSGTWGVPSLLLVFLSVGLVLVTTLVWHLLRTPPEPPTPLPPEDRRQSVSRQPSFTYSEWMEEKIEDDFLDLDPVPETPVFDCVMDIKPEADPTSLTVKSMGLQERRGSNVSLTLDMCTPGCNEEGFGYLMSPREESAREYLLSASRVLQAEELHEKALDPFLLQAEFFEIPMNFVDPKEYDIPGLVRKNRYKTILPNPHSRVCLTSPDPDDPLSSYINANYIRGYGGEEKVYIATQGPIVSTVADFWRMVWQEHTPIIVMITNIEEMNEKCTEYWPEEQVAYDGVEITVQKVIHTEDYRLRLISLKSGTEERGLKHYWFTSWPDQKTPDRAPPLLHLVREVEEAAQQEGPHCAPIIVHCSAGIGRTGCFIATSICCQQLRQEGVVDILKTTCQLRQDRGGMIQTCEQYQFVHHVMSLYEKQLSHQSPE

## C[C@@H]1CC[C@@]2(OC1)O[C@H]1C[C@H]3[C@@H]4CC=C5C[C@@H](O[C@@H]6O[C@H](CO)[C@@H](O[C@@H]7O[C@@H](CO)[C@H](O)[C@H]7O)[C@H](O)[C@H]6O[C@@H]6O[C@@H](C)[C@H](O)[C@@H](O)[C@H]6O)CC[C@]5(C)[C@H]4CC[C@]3(C)[C@H]1[C@@H]2C [polyphyllin D]
SHP1
  inhibition at 20 µM: 0.1%
PTPN1 (PTP1B)
  inhibition at 20 µM: 0%
PTPN23 (HD-PTP)
  inhibition at 20 µM: 0%
PTPN5 (STEP)
  inhibition at 20 µM: 0%
